How the values were obtained:
[1] = molecular target: T1, catalytic domain (JH1, amino acids 826-1132) of human JAK2 (Homo sapiens, UniProt O60674); assay: JAK2 LanthaScreen JH1 binding assay; details: 50 nM tracer, 2 hours at 25° C., read-out: JH1 BIND IC50
T1 construct: catalytic domain (JH1, amino acids 826-1132) of human JAK2; FLAG (N); purchased Carna Biosciences 08-445-20N; host or cells: baculovirus expression system
Procedure: Example A. JAK2 LanthaScreen […] Binding Assay
JAK2 JH1 binding assay utilizes catalytic domain (JH1, amino acids 826-1132) of human JAK2 expressed as N-terminal FLAG-tagged, biotinylated protein in a baculovirus expression system (Carna Biosciences, Product #08-445-20N). The assay was conducted in black 384-well polystyrene plates in a final reaction volume of 20 μL. JAK2 JH1 (1.5 nM) was incubated with compounds (100 nL serially diluted in DMSO) in the presence of 50 nM fluorescent JAK2-JH1 tracer and 0.5 nM Streptavidin-Tb cryptate (Cisbio Part #610SATLB) in assay buffer (50 mM Tris, pH=7.5, 10 mM MgCl2, 0.01% Brij-35, 0.1% BSA, 1 mM EGTA, 5% Glycerol and 5 mM DTT). Non-specific binding was accessed in the presence of 2 mM ATP. After incubation for 2 hours at 25° C., LanthaScreen signals were read on a PHERAstar FS plate reader (BMG LABTECH). Data was analyzed with IDBS XLfit and GraphPad Prism 5.0 software using a four parameter dose response curve to determine IC50 for each compound.

[2] = molecular target: T2, pseudo-kinase domain (JH2, amino-acids 536-812 with 3 surface mutations W659A, W777A, F794H) of human V617F mutant JAK2 (Homo sapiens, UniProt O60674, F794H/V617F/W659A/W777A); assay: JAK2 LanthaScreen JH2-V617F binding assay; details: 50 nM tracer, 1 hour at 25° C., read-out: JH2 BIND V617F IC50
T2 construct: pseudo-kinase domain (JH2, amino-acids 536-812 with 3 surface mutations W659A, W777A, F794H); His (C); Avi (biotinylated) (C); purchased BPS Bioscience 79498; host or cells: baculovirus expression system
T2 sequence (O60674 536-812 V617F/W659A/W777A/F794H): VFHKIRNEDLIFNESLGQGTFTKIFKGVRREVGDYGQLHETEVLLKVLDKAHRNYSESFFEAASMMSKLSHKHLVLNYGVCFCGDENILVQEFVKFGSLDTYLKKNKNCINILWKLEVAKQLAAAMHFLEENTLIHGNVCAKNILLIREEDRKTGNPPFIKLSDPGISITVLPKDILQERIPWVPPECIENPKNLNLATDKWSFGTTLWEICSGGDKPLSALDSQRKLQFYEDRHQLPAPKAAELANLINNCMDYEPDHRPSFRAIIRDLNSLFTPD
Procedure: Example C. JAK2 LanthaScreen JH2-V617F Binding Assay
(§1) JAK2 JH2-V617F binding assay utilizes pseudo-kinase domain (JH2, amino-acids 536-812 with 3 surface mutations W659A, W777A, F794H) of human V617F mutant JAK2 expressed as C-terminal His-Avi-tagged, biotinylated protein in a baculovirus expression system (BPS Bioscience, Catalog #79498). The assay was conducted in black 384-well polystyrene plates in a final reaction volume of 20 μL. JAK2 JH2-V617F (0.26 nM) was incubated with compounds (100 nL serially diluted in DMSO) in the presence of 50 nM Fluorescent JAK2-JH2 Tracer (MedChem Express Catalog #HY-102055) and 0.25 nM Streptavidin-Tb cryptate (Cisbio Part #610SATLB) in assay buffer (50 mM Tris, pH=7.5, 10 mM MgCl2, 0.01% Brij-35, 0.1% BSA, 1 mM EGTA, 5% Glycerol and 5 mM DTT). Non-specific binding was accessed in the presence of 2 mM ATP. After incubation for 1 hour at 25° C., LanthaScreen signals were read on a PHERAstar FS plate reader (BMG LABTECH). Data was analyzed with IDBS XLfit and GraphPad Prism 5.0 software using a four parameter dose response curve to determine IC50 for each compound.

[3] = molecular target: T3, pseudo-kinase domain (JH2, amino-acids 536-812 with 3 surface mutations W659A, W777A, F794H) of human Wild Type JAK2 (Homo sapiens, UniProt O60674, F794H/W659A/W777A); assay: JAK2 LanthaScreen JH2-WT binding assay; details: 50 nM tracer, 1 hour at 25° C., read-out: JH2 BIND WT IC50
T3 construct: pseudo-kinase domain (JH2, amino-acids 536-812 with 3 surface mutations W659A, W777A, F794H); His (C); Avi (biotinylated) (C); purchased BPS Bioscience 79463; host or cells: baculovirus expression system
T3 sequence (O60674 536-812 W659A/W777A/F794H): as the sequence (O60674 536-812 V617F/W659A/W777A/F794H) above, with F82V counted along it
Procedure: Example B. JAK2 LanthaScreen JH2-WT Binding Assay
as §1, with “JH2-WT” for “JH2-V617F”, “Wild Type” for “V617F mutant”, “#79463).” for “#79498).”, “JH2-WT (0.145” for “JH2-V617F (0.26”

T1 sequence (O60674 826-1132): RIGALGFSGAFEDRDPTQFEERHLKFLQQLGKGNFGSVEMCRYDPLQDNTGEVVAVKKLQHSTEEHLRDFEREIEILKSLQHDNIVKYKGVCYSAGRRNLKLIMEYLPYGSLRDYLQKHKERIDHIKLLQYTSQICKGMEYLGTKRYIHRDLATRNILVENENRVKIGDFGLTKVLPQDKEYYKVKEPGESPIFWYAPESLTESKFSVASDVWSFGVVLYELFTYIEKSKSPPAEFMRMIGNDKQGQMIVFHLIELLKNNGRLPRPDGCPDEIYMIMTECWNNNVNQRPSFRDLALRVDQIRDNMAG

Row | SMILES | IC50 [1] [nM] | IC50 [2] [nM] | IC50 [3] [nM]
1 | COC(=O)N[C@H]1C[C@@H](N2C(=O)NCc3cnc4[nH]c(-c5cnn(C)c5)c(-c5ccc6c(cnn6C(C)C)c5)c4c32)C1 [Example 4, Methyl ((1s,3s)-3-(9-(1-isopropyl-1H-indazol-5-yl)-8-(1-methyl-1H-pyrazol-4-yl)-2-oxo-2,3,4,7-tetrahydro-1H-pyrrolo[3′,2′:5,6]pyrido[4,3-d]pyrimidin-1-yl)cyclobutyl) carbamate] | > 1000 | 10 to 100 | 10 to 100
2 | CC(C)n1ncc2cc(-c3c(-c4cnn(C)c4)[nH]c4ncc5c(c34)N([C@H]3C[C@@H](NC(=O)c4nc(C(F)(F)F)cs4)C3)C(=O)NC5)ccc21 [Example 22, N-((1s,3s)-3-(9-(1-isopropyl-1H-indazol-5-yl)-8-(1-methyl-1H-pyrazol-4-yl)-2-oxo-2,3,4,7-tetrahydro-1H-pyrrolo[3′,2′:5,6]pyrido[4,3-d]pyrimidin-1-yl)cyclobutyl)-4-(trifluoromethyl)thiazole-2-carboxamide] | > 1000 | 100 to 500 | 100 to 500
3 | COC(=O)N[C@H]1C[C@H](N2C(=O)NCc3cnc4[nH]c(C5=CCN(C)CC5)c(-c5ccc6c(cnn6C(C)C)c5)c4c32)C1 [Example 34, Methyl ((1r,3r)-3-(9-(1-isopropyl-1H-indazol-5-yl)-8-(1-methyl-1,2,3,6-tetra hydropyridin-4-yl)-2-oxo-2,3,4,7-tetrahydro-1H-pyrrolo[3′,2′:5,6]pyrido[4,3-d]pyrimidin-1-yl)cyclobutyl) carbamate] | > 1000 | 10 to 100 | 10 to 100
4 | COC(=O)N[C@H]1C[C@H](N2C(=O)NCc3cnc4[nH]c(-c5cnn(C)c5)c(-c5ccc6c(cnn6C(C)C)c5)c4c32)C1 [Example 1, Methyl ((1r,3r)-3-(9-(1-isopropyl-1H-indazol-5-yl)-8-(1-methyl-1H-pyrazol-4-yl)-2-oxo-2,3,4,7-tetrahydro-1H-pyrrolo[3′,2′:5,6]pyrido[4,3-d]pyrimidin-1-yl)cyclobutyl)carbamate] | 100 to 500 | ≤ 10 | ≤ 10
5 | COC(=O)N[C@@H]1CC[C@@H](n2c(=O)nc(N)c3cnc4[nH]c(-c5cnn(C)c5)c(-c5ccc6c(cnn6C(C)C)c5)c4c32)C1 [Example 41, Methyl ((1R,3R)-3-(4-amino-9-(1-isopropyl-1H-indazol-5-yl)-8-(1-methyl-1H-pyrazol-4-yl)-2-oxo-2,7-dihydro-1H-pyrrolo[3′,2′:5,6]pyrido[4,3-d]pyrimidin-1-yl)cyclopentyl)carbamate] | 500 to 1000 | ≤ 10 | ≤ 10
6 | CC(C)n1ncc2cc(-c3c(-c4cnn(C)c4)[nH]c4ncc5c(c34)N(C3CCN(C(=O)NCC(F)F)CC3)C(=O)NC5)ccc21 [Example 17, N-(2,2-Difluoroethyl)-4-(9-(1-isopropyl-1H-indazol-5-yl)-8-(1-methyl-1H-pyrazol-4-yl)-2-oxo-2,3,4,7-tetrahydro-1H-pyrrolo[3′,2′:5,6]pyrido[4,3-d]pyrimidin-1-yl)piperidine-1-carboxamide] | > 1000 | 10 to 100 | 10 to 100
7 | CC(C)n1ncc2cc(-c3c(-c4cnn(C)c4)[nH]c4ncc5c(c34)N([C@H]3C[C@H](NS(C)(=O)=O)C3)C(=O)NC5)ccc21 [Example 3, N-((1r,3r)-3-(9-(1-Isopropyl-1H-indazol-5-yl)-8-(1-methyl-1H-pyrazol-4-yl)-2-oxo-2,3,4,7-tetrahydro-1H-pyrrolo[3′,2′:5,6]pyrido[4,3-d]pyrimidin-1-yl)cyclobutyl) methan esulfonamide] | 10 to 100 | ≤ 10 | ≤ 10
8 | CC(=O)N[C@H]1C[C@H](N2C(=O)NCc3cnc4[nH]c(-c5cnn(C)c5)c(-c5ccc6c(cnn6C(C)C)c5)c4c32)C1 [Example 2, N-((1r,3r)-3-(9-(1-Isopropyl-1H-indazol-5-yl)-8-(1-methyl-1H-pyrazol-4-yl)-2-oxo-2,3,4,7-tetrahydro-1H-pyrrolo[3′,2′:5,6]pyrido[4,3-d]pyrimidin-1-yl)cyclobutyl) acetamide] | > 1000 | 10 to 100 | 10 to 100
9 | COCc1ccc(-c2c(-c3cnn(C)c3)[nH]c3ncc4c(c23)N([C@@H]2CC[C@@H](NC(=O)OC)C2)C(=O)NC4)cc1 [Example 32, Methyl ((1R,3R)-3-(9-(4-(methoxymethyl)phenyl)-8-(1-methyl-1H-pyrazol-4-yl)-2-oxo-2,3,4,7-tetrahydro-1H-pyrrolo[3′,2′:5,6]pyrido[4,3-d]pyrimidin-1-yl)cyclopentyl) carbamate] | 500 to 1000 | 10 to 100 | 10 to 100
10 | CC(C)n1ncc2cc(-c3c(-c4cnn(C)c4)[nH]c4ncc5c(c34)N(C3CCC4(CC3)CN(S(=O)(=O)C3(C)CC3)C4)C(=O)NC5)ccc21 [Example 20, 9-(1-isopropyl-1H-indazol-5-yl)-8-(1-methyl-1H-pyrazol-4-yl)-1-(2-((1-methylcyclopropyl)sulfonyl)-2-azaspiro[3.5]nonan-7-yl)-1,3,4,7-tetrahydro-2H-pyrrolo [3′,2′:5,6]pyrido[4,3-d]pyrimidin-2-one] | > 1000 | 10 to 100 | 10 to 100
11 | CC(C)n1ncc2cc(-c3c(-c4cnn(C)c4)[nH]c4ncc5c(c34)N([C@@H]3CC[C@@H](NC(=O)C4CC4)C3)C(=O)NC5)ccc21 [Example 11, N-((1R,3R)-3-(9-(1-Isopropyl-1H-indazol-5-yl)-8-(1-methyl-1H-pyrazol-4-yl)-2-oxo-2,3,4,7-tetrahydro-1H-pyrrolo[3′,2′:5,6]pyrido[4,3-d]pyrimidin-1-yl)cyclopentyl) cyclopropanecarboxamide] | > 1000 | 10 to 100 | 10 to 100
12 | CC(=O)N[C@H]1C[C@@H](N2C(=O)NCc3cnc4[nH]c(-c5cnn(C)c5)c(-c5ccc6c(cnn6C(C)C)c5)c4c32)C1 [Example 5, N-((1s,3s)-3-(9-(1-Isopropyl-1H-indazol-5-yl)-8-(1-methyl-1H-pyrazol-4-yl)-2-oxo-2,3,4,7-tetrahydro-1H-pyrrolo[3′,2′:5,6]pyrido[4,3-d]pyrimidin-1-yl)cyclobutyl) acetamide] | 500 to 1000 | 10 to 100 | 10 to 100
13 | COC(=O)N[C@@H]1CC[C@@H](N2C(=O)NCc3cnc4[nH]c(-c5cnn(C)c5)c(-c5ccc6c(cnn6C)c5)c4c32)C1 [Example 29, Methyl ((1R,3R)-3-(9-(1-methyl-1H-indazol-5-yl)-8-(1-methyl-1H-pyrazol-4-yl)-2-oxo-2,3,4,7-tetrahydro-1H-pyrrolo[3′,2′:5,6]pyrido[4,3-d]pyrimidin-1-yl)cyclopentyl) carbamate] | > 1000 | 10 to 100 | ≤ 10
